Assay results from patent publication US7649002B2, “(3,5-dimethylpiperidin-1yl)(4-phenylpyrrolidin-3-yl)methanone derivatives as MCR4 agonists” (Pfizer Inc, priority 2004, dated 2010).

Biological target: T1, human MCR5 receptor (Homo sapiens, UniProt P33032)
T1 construct: expressed in transfected cells
Assay: MCR5 standard functional assay (Protocol D): CHO-K1-MC5R-CRE-β-lactamase reporter
Type: cell-based
Settings: for EC50: Protocol D
Source text: These cell lines were engineered using protocols akin to those outlined by Zaccolo et al (Zaccolo, M., (2000) Nature, 2(1); 25-29). Compound-induced activation of the MCR5 or MCR4 receptors in these two cell lines stimulated the production, and intracellular accumulation, of the enzyme β-lactamase. The quantity of β-lactamase enzyme produced was directly proportional to the degree to which the test compound activated the MCR5 or MCR4 receptors present on these cells and was quantified using the P-lactamase gene reporter analysis kit that is commercially available from Invitrogen Life Technologies. An in-depth description of this technology and assay protocols are available from the Invitrogen web site (www.invitrogen.com). The protocol listed below provides a summary of that assay methodology. The quantity of β-lactamase enzyme produced by compound-induced activation of the MCR5 or MCR4 receptors expressed in these cell lines was quantified using a LjI Biosystems Analyst™ HT 96.384 plate reader set to excite at a wave length of 405 nm, and measure the energy emitted at wave lengths of 450 nm and 530 nm. Cellular responses were quantified by dividing the measured energy emitted at a wavelength of 450 nm by the measured energy emitted at a wavelength of 530 nm. […] CCF4-AM was dissolved in 100% DMSO to give a final solution concentration of 1 mM. This solution was termed Solution A. Probenecid was dissolved in 200 mM NaOH to give a final solution concentration of 200 mM. This solution was termed Solution D. Composition of the β-lactamase assay dye solution: for 1072 μL of assay dye solution combine: 12 μL of Solution A, 60 μL of Solution B, 925 μL of Solution C and 75 μL of Solution D. […] Cells were grown in T225 vent cap flasks containing 50 ml of growth medium and maintained in a cell incubator at a temperature of 37° C. and in an environment containing 5% CO2. The composition of the growth medium for the CHO-K1-MC5R-CRE-β-lactamase was 90% v/v DMEM supplemented with; Glutamax-1, 25 mM HEPES, 10% v/v foetal calf serum (FCS), 1 mM sodium pyruvate, 0.1 mM non essential amino acids and 800 μg/ml genetic in. For the CHO-K1-MC4R-CRE-β-lactamase this growth media was further supplemented with […] Zeocin. Cells were harvested when they reached 80-90% confluency by first removing the existing growth medium and then washing with PBS that had been pre-warmed to a temperature of 37° C. This PBS was then removed and 5 ml of cell dissociation fluid added to the flask. These cells were incubated for 5 minutes in a cell incubator set at a temperature of 37° C. and in an environment containing 5% CO2 to detach the cells. When cells were detached, pre-warmed growth media was added, the cells re-suspended and mixed gently to achieve a single cell suspension by pipetting. This cell suspension was then used for experimentation, or transferred into a new T225 flask to perpetuate the cell culture. On the first day of the assay cells were harvested as described above. […] For each assay the cell plates were then retuned to a cell incubator maintained at a temperature of 37° C. and in an environment containing 5% CO2 overnight before performing the assay on the second assay day. […] For the MCR4 improved functional assay methodology the solution of cyclohexamide was not added. Subsequently, 10 μL of the test compound solution was transferred to the assay plate. […] After this incubation period the plate was removed from the incubator, 10 μL of the […] assay dye solution was added to each well and then the plate returned to the cell incubator.

T1 sequence (P33032 whole entry): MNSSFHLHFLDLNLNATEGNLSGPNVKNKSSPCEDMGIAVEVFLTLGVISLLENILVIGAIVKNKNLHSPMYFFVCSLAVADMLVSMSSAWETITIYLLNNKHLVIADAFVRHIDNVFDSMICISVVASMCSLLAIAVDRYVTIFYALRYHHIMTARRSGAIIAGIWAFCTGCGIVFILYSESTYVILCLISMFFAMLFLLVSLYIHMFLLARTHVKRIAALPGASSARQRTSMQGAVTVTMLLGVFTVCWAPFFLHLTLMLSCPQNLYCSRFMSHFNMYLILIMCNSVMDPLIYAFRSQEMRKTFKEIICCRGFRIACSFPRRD

Structure (SMILES) | Selectivity MCR5/MCR4 (Table 5, MCR4 by Protocol C) | EC50 (Table 5) | Selectivity MCR5/MCR4 (Table 6, MCR4 by Protocol E) | EC50 (Table 6)
C[C@@H]1CN(C(=O)[C@@H]2CN(C(C)(C)C)C[C@H]2c2ccc(F)cc2F)C[C@H](C)[C@@]1(O)c1ccccc1 [Example 1, (3R,4R,5S)-1-{[(3S,4R)-1-tert-Butyl-4-(24-difluorophenyl)pyrrolidin-3-yl]carbonyl}-3,5-dimethyl-4-phenylpiperidin-4-ol] | 268 | 6.71 µM | 285 | –
C[C@@H]1CN(C(=O)[C@@H]2CN(C(C)(C)C)C[C@H]2c2ccc(F)cc2F)C[C@H](C)[C@@]1(O)c1ccccc1.Cl [Example 5, (3R,4R,5S)-1-{[(3S,4R)-1-tert-Butyl-4-(2,4-difluorophenyl)pyrrolidin-3-yl]carbonyl}-3,5-dimethyl-4-phenylpiperidin-4-ol hydrochloride] | – | – | 285 | 2.74 µM
CC(C)N1C[C@@H](C(=O)N2C[C@@H](C)[C@](O)(c3ccccc3)[C@@H](C)C2)[C@H](c2ccc(F)cc2F)C1.Cl [Example 6, (3R,4R,5S)-1-{[(3S,4R)-4-(2,4-Difluorophenyl)-1-isopropylpyrrolidin-3-yl]carbonyl}-3,5-dimethyl-4-phenylpiperidin-4-ol hydrochloride] | – | – | 83 | 1.59 µM
C[C@@H]1CN(C(=O)[C@@H]2CNC[C@H]2c2ccc(F)cc2F)C[C@H](C)[C@@]1(O)c1ccc(F)cc1.Cl [Example 12, (3R,4R,5S)-1-{[(3S,4R)-4-(2,4-difluorophenyl)pyrrolidin-3-yl]carbonyl}-4-(4-fluorophenyl)-3,5-dimethylpiperidin-4-ol hydrochloride] | – | – | 267 | 20 µM
C[C@@H]1CN(C(=O)[C@@H]2CN(C(C)(C)C)C[C@H]2c2ccc(F)cc2F)C[C@H](C)[C@@]1(O)c1ccc(Cl)cc1.Cl [Example 13, (3R,4R,5S)-1-{[(3S,4R)-1-tert-butyl-4-(2,4-difluorophenyl)pyrrolidin-3-yl]carbonyl}-4-(4-chlorophenyl)-3,5-dimethylpiperidin-4-ol hydrochloride] | – | – | 624 | 16.9 µM
C[C@@H]1CN(C(=O)[C@@H]2CN(c3ccccn3)C[C@H]2c2ccc(F)cc2F)C[C@H](C)[C@@]1(O)c1ccccc1.Cl [Example 31, (3R,4R,5S)-1-{[(3S,4R)-4-(2,4-difluorophenyl)-1-pyridin-2-ylpyrrolidin-3-yl]carbonyl}-3,5-dimethyl-4-phenylpiperidin-4-ol hydrochloride] | – | – | 266 | 0.956 µM
C[C@@H]1CN(C(=O)[C@@H]2CN(c3cccnn3)C[C@H]2c2ccc(F)cc2F)C[C@H](C)[C@@]1(O)c1ccccc1.Cl [Example 35, (3R,4R,5S)-1-{[(3S,4R)-4-(2,4-difluorophenyl)-1-pyridazin-3-ylpyrrolidin-3-yl]carbonyl}-3,5-dimethyl-4-phenylpiperidin-4-ol hydrochloride] | – | – | 13,333 | 20 µM
